Results published in patent publication US11427588B2, “Compositions and methods for treating neurodegenerative diseases and cardiomyopathy” (THE REGENTS OF THE UNIVERSITY OF CALIFORNIA, priority 2013, dated 2022).
Where “and” joins values, the source holds several entries; their conditions need not be identical. Identical values can stand only once.

Tests used:
PINK1−/− mice [1] = assay: Heart health and performance in mice treated from birth; type: in vivo
Protocol: PINK1 expression is protective in several mouse models of heart failure. PINK1wt expression will block pathological hypertrophy, increase heart fractional shortening, and prevent ischemia induced death of heart tissue. To assay the effect of kinetin PINK1 wt or PINK1−/− mice were treated with vehicle, adenine or kinetin from birth following published protocols for administration of kinetin (Hims et al., 2007; Shetty et al., 2011). The mice were sacrificed and whole hearts analyzed, and isolated cardiomyocytes from mice at appropriate time periods (e.g. 2 and 6 months). O2 consumption, mitochondrial integrity (mtDNA abundance, mitochondrial capacity and JC-1 fluorescence) caspase 3/7 cleavage activity and TUNEL staining were measured to assess the health of these tissues. According to published results (Billia et al., 2011; Chen and Dorn, 2013), PINK1 activity is essential for normal 02 consumption and maintenance of mitochondrial integrity. Decreased 02 consumption and mitochondrial integrity in PINK1−/− mice was compared to PINK1wt mice. […] Additionally, caspase 3/7 cleavage activity and TUNEL staining of the left ventricle were increased in PINK1−/− mice derived cardiomyocytes compared to PINK1wt.
In addition to these analyses we analyzed the performance of the heart in whole animals. We utilized the same procedure as above and treated either PINK1wt or PINK1−/− mice with vehicle, adenine or kinetin from birth following published protocols for administration of kinetin (Hims et al., 2007; Shetty et al., 2011). […] These characteristics of pathological hypertrophy indicate heart failure in the PINK1−/− mice will not increase as dramatically in PINK1wt mice (Billia et al., 2011). […] These experiments indicate that amplification of PINK1 activity by treatment with kinetin can block age-induced loss in heart function.

PINK1−/− mice [2] = assay: Induced myocardial infarction model; type: in vivo
Protocol: Utilizing mice dosed with kinetin, adenine or vehicle for two weeks, we induced myocardial infarction by ligating the left anterior descending artery at the level of the left atrial appendage (Wang et al., 2006) or sham surgery. Following infarct for 24 or 72 hours, we sacrificed the mice and analyzed the heart by TUNEL staining as cardiomyocytes are susceptible to cell death following infarct. […] These experiments replicate our results in neurons in which kinetin treatment will block apoptosis in response to a number of cellular stressors.

PINK1^G309D = PINK1^G309D (Homo sapiens, UniProt Q9BXM7, G309D); assay: Parkin mitochondrial translocation assay in HeLa cells after CCCP depolarization; type: cell-based; set-up: transfection with MitoGFP, mCherry Parkin, and full length PINK1FLAG3 in a 1:4:2 ratio; expressed in transfected cells; host or cells: HeLa; conditions: for 50% Recruitment Times (R50) mCherry Parkin to depolarized mitochondria: HeLa cells with PINK1^G309D, mCherryParkin, mitoGFP, 48 hours, 25 μM; for delta co-localization: PINK1^G309D expressing cells, algorithm quantified
PINK1^G309D, sequence (Q9BXM7 78-581 G309D): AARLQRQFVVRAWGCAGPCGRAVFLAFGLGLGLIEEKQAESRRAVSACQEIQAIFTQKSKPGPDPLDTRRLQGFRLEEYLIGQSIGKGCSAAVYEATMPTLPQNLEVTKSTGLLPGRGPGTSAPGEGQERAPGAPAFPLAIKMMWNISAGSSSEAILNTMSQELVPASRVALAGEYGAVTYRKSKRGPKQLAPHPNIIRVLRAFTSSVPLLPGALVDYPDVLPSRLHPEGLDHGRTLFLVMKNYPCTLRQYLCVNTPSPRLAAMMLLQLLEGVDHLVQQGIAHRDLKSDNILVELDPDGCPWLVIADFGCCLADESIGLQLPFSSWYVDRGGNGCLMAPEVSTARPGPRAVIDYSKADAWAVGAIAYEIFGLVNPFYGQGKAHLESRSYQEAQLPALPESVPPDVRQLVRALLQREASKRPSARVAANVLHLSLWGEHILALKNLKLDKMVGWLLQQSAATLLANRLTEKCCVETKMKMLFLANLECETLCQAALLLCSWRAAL
Protocol: (§1) Parkin phosphorylation and mitochondrial translocation assay: HeLa cells were grown in DMEM supplemented with 10% FBS. Log phase cells were plated in 24 well plates with glass coverslips (Mattek) pretreated with fibronectin. Cells were pretreated with 50 μM of the indicated compound, followed by transfection with MitoGFP, mCherry Parkin, and full length PINK1FLAG3 in a 1:4:2 ratio using Fugene 6 (Promega). Fields of cells were selected by expression of MitoGFP (6 fields/well-3 wells/condition) and imaged at five-minute intervals following depolarization with 5 μM CCCP. Quantification was performed according to published protocols^3 and by creation of a Matlab based script.
(§2) Our ability to enhance PINK1 activity in-vitro using KTP led us to investigate means by which to achieve enhanced activity in cells expressing PINK1. […] We treated cells with either kinetin or adenine (FIG. 2A) and measured Parkin localization following mitochondrial depolarization with CCCP (FIG. 2B). HeLa cells, which have low levels of endogenous PINK1 and PARKIN, were transfected with wildtype or PINK1^G309D, mCherryParkin, and mitoGFP. After 48 hours of incubation with 25 μM adenine, kinetin or equivalent DMSO, we imaged CCCP-mediated depolarization of mitochondria (FIGS. 2C, 2D) and calculated the percentage of GFP labelled mitochondria with mCherryParkin associated (FIG. 2E). In line with previous reports^3, transfection of PINK1^G309D slowed the 50% recruitment (R50) time of mCherryParkin to depolarized mitochondria (23±2 min vs 15±1 min R50) (FIGS. 2C-2E Table.2). […] Using an algorithm to accurately quantify the time dependent change in co-localization, we calculated that PINK1^wt expressing cells achieved a mean change in co-localization of 0.112 with DMSO or adenine and 0.13 with kinetin treatment (FIGS. 7A-7F); PINK1^G309D expressing cells treated with DMSO or adenine achieved delta co-localization of 0.076, but upon addition of kinetin returned to near-PINK1-wildtype levels (0.124).
(§3) To test the PINK1-dependency of our findings, we assayed PINK1 activity by using phospho specific antibodies raised against Parkin's PINK1-specific S65 phosphosite^21 after immuno-precipitating Parkin. […] To test whether kinetin stimulated Parkin localization was due to reversible binding of kinetin to PINK1, we treated the cells with fresh medium for 96 hours before performing a new recruitment assay. Similar recruitment rates were observed following the washout (FIG. 2F). […] We followed previously published methods to calculate the percentage of GFP labeled mitochondria with mCherryParkin associated. Transfection of G309DPINK11-581 slowed the rate of mCherryParkin recruitment (23+2 min vs 15+1 min R50) as per reported results. The addition of kinetin, but not adenine, increased the rate of mCherryParkin recruitment in wt cells from 15+1 to 10+2 min and G309D cells from 23+2 to 15+2 min. We then incubated the cells with kinetin for 2 days, washed the cells with fresh medium then performed the recruitment assay and saw the same increase in the rate of recruitment. […] We developed an algorithm to calculate the change in co-localization. The wtPINK1 cells achieved a mean change in co-localization of 0.11 with DMSO, adenine or kinetin treatment. G309DPINK1 expressing cells treated with DMSO or Adenine, achieved delta co-localization of 0.075 but upon addition of kinetin indicating rescue to the wt level (0.11) (P>0.05).

PINK1^wt = PINK1^wt (Homo sapiens, UniProt Q9BXM7); assay: as above; type: cell-based; set-up: transfection with MitoGFP, mCherry Parkin, and full length PINK1FLAG3 in a 1:4:2 ratio; expressed in transfected cells; host or cells: HeLa; conditions: for 50% Recruitment Times (R50) mCherry Parkin to depolarized mitochondria: HeLa cells with PINK1^wt, mCherryParkin, mitoGFP, 48 hours, 25 μM; for mean change in co-localization: PINK1^wt expressing cells, algorithm quantified
PINK1^wt, sequence (Q9BXM7 78-581): as the sequence (Q9BXM7 78-581 G309D) above, with D232G counted along it
Protocol: as §1, §2, §3

50% Recruitment Times (R50) mCherry Parkin to depolarized mitochondria (PINK1^G309D) | delta co-localization (PINK1^G309D) | 50% Recruitment Times (R50) mCherry Parkin to depolarized mitochondria (PINK1^wt) | mean change in co-localization (PINK1^wt) | delta co-localization (PINK1^G309D; listed as Adenine) | Compound | age induced pathological hypertrophy (PINK1−/− mice [1]) | scar size and level of collagen deposition (PINK1−/− mice [2])
15±2 min and 15+2 min | 0.124 and 0.11 | 10±2 min and 10+2 min | 0.13 and 0.11 |  | c1coc(CNc2ncnc3[nH]cnc23)c1 [kinetin] | no effect | not
23 ± 2 min | 0.076 | 15 ± 1 min | 0.112 and 0.11 | 0.075 | Nc1ncnc2nc[nH]c12 [adenine, reference compound] | no effect | not
